Results as given in patent US20220354844A1, “METHODS OF TREATING METABOLIC DISEASES WITH FUSED BICYCLIC PYRAZOLES” (Belite Bio, Inc, priority 2017, published 2022).
Where “and” joins values, the source holds several entries; their conditions need not be identical. Equal values may be shown once.

Legend:
[1] = Compound 1 single dose non-human primate PK study; type: in vivo, Cynomolgus Macaques; conditions: NHP; for Vd: read-out: Vss
Protocol: A pharmacokinetic study of Compound 1 following a single intravenous or oral dose administration to non-human primates (Cynomolgus Macaques) was conducted, the results of which are found in Table 2 and FIGS. 1-8.

[2] = Compound 1 single dose rat PK study; type: in vivo, male Sprague Dawley rats; conditions: for Vd: read-out: Vss
Protocol: A pharmacokinetic study of Compound 1 following a single intravenous or oral dose administration to male Sprague Dawley rats was conducted, the results of which are found in Table 3 and FIGS. 9-14.

[3] = Compound 1 single dose mouse PK study; type: in vivo, male CD-1 mice
Protocol: A pharmacokinetic study of Compound 1 following a single intravenous or oral dose administration to male CD-1 mice was conducted, the results of which are found in Table 4 and FIGS. 15-20.

[4] = test system: Subjects with NAFLD or NASH; experiment: Treatment of NAFLD and NASH in humans; type: in vivo, human; conditions: 50 or 100 mg/day for 6 months
Protocol: Subjects with NAFLD or NASH are treated with doses of either 50 or 100 mg/day of compound 1 or 2 for 6 months. Subjects are permitted their usual other medications (e.g. antidiabetic medications such as metformin or […]) but not glitazones, PPAR agonists, OCA, or similar medications. The subjects are assessed before the study, and at intervals during the study, such as every 4 weeks during the study and 4 weeks after the last dose of compound 1 or 2, for safety and pharmacodynamic evaluations.
MRIs of the subjects' livers are taken every 4 weeks during the study and 4 weeks after completion of compound 1 or 2 dosing, to determine hepatic fat; and liver biopsies are taken before the study (to establish the diagnosis) and 4 weeks after completion of compound 1 or 2 dosing. At each visit, after a 12-hour fast, blood is drawn and urine collected; and a standard metabolic panel, complete blood count, and standard urinalysis are performed. Blood is analyzed for total cholesterol, HDL-C, LDL-C, VLDL-C, TGs, apoB, and liver transaminases. The subjects also maintain health diaries, which are reviewed at each visit.

[5] = single iv dose 1 mg/kg, individual animals, 1 mg/kg
[6] = single po dose 5 mg/kg, individual animals, 5 mg/kg
[7] = cynomolgus monkey, plasma, iv, 1 mg/kg, single iv dose 1 mg/kg, Mean of the 3 animals
[8] = cynomolgus monkey, plasma, iv, 1 mg/kg, single iv dose 1 mg/kg, individual animals
[9] = cynomolgus monkey, plasma, po, 5 mg/kg, single po dose 5 mg/kg, Mean of the 3 animals
[10] = cynomolgus monkey, plasma, po, 5 mg/kg, single po dose 5 mg/kg, individual animals
[11] = male, Sprague Dawley, plasma, iv, 2 mg/kg, single iv dose 2 mg/kg, Mean of the 3 rats
[12] = male, Sprague Dawley, plasma, iv, 2 mg/kg, single iv dose 2 mg/kg, individual rats
[13] = male, Sprague Dawley, plasma, po, 5 mg/kg, single po dose 5 mg/kg, Mean of the 3 rats
[14] = male, Sprague Dawley, plasma, po, 5 mg/kg, single po dose 5 mg/kg, individual rats
[15] = single iv dose 2 mg/kg, individual rats, 2 mg/kg
[16] = single po dose 5 mg/kg, individual rats, 5 mg/kg
[17] = male, CD-1, plasma, single iv dose 2 mg/kg
[18] = male, CD-1, plasma, single po dose 5 mg/kg

Compound: CC(=O)N1CCc2c(C(=O)N3CCC(c4ccc(F)c(F)c4C(F)(F)F)CC3)n[nH]c2C1 [Compound 1, 1-(3-(4-(3,4-difluoro-2-(trifluoromethyl)phenyl)piperidine-1-carbonyl)-1,4,5,7-tetrahydro-6H-pyrazolo[3,4-c]pyridin-6-yl)ethan-1-one]
- AUC inf [1, 5]: 5217 hr.ng/m1 and 3761 hr.ng/m1
- AUCLAST [1, 5]: 5165 ng·h/mL and 3731 ng·h/mL
- Cl [1, 5]: 3.2 mL/min/kg and 4.43 mL/min/kg
- Cmax [1, 5]: 968 ng/mL and 704 ng/mL
- MRT last [1, 5]: 6.8 h and 6.7 h
- MRTinf [1, 5]: 7.3 h and 7.1 h
- Vss [1, 5]: 1.399 L/kg and 1.886 L/kg
- t1/2 [1, 5]: 7.8 h and 7.4 h
- F ([1]; single po dose 5 mg/kg, Mean of the 3 animals): 18.7%
- AUC inf [1, 6]: 3601 hr.ng/m1 and 3918 hr.ng/m1
- AUCLAST [1, 6]: 3525 ng·h/mL and 3852 ng·h/mL
- Cmax [1, 6]: 363 ng/mL and 369 ng/mL
- F [1, 6]: 21.6% and 16.5%
- MRT last [1, 6]: 10.0 h and 10.3 h
- MRTinf [1, 6]: 11.1 h
- Tmax [1, 6]: 2 h
- t1/2 [1, 6]: 8.7 h and 8.1 h
- AUC(0-inf) [1, 7]: 4370 ng·h/mL
- AUC(0-t) [1, 7]: 4340 ng·h/mL
- MRT inf [1, 7]: 6.9 h
- clearance [1, 7]: 3.88 mL/min/kg
- half-life [1, 7]: 7.7 h
- Tmax ([1]; cynomolgus monkey, plasma, iv, 1 mg/kg, single iv dose 1 mg/kg, Mean of the 3 animals, first plasma collection time listed as Tmax, read-out: Tmax): 0.27 h
- Cmax ([1]; cynomolgus monkey, plasma, iv, 1 mg/kg, single iv dose 1 mg/kg, Mean of the 3 animals, read-out: Cmax): 881 ng/mL
- MRT last ([1]; cynomolgus monkey, plasma, iv, 1 mg/kg, single iv dose 1 mg/kg, Mean of the 3 animals, read-out: MRT last): 6.4 h
- Vd [1, 7]: 1.6 L/kg
- AUC(0-inf) [1, 8]: 4140 ng·h/mL
- AUC(0-t) [1, 8]: 4110 ng·h/mL
- MRT inf [1, 8]: 6.3 h
- clearance [1, 8]: 4.02 mL/min/kg
- half-life [1, 8]: 7.8 h
- Cmax ([1]; cynomolgus monkey, plasma, iv, 1 mg/kg, single iv dose 1 mg/kg, individual animals, read-out: Cmax): 970 ng/mL
- MRT last ([1]; cynomolgus monkey, plasma, iv, 1 mg/kg, single iv dose 1 mg/kg, individual animals, read-out: MRT last): 5.9 h
- Vd [1, 8]: 1.52 L/kg
- AUC(0-inf) [1, 9]: 4080 ng·h/mL
- AUC(0-t) [1, 9]: 3990 ng·h/mL
- MRT inf [1, 9]: 11.3 h
- half-life [1, 9]: 8.5 h
- Cmax ([1]; cynomolgus monkey, plasma, po, 5 mg/kg, single po dose 5 mg/kg, Mean of the 3 animals, read-out: Cmax): 406 ng/mL
- MRT last ([1]; cynomolgus monkey, plasma, po, 5 mg/kg, single po dose 5 mg/kg, Mean of the 3 animals, read-out: MRT last): 10.2 h
- Tmax ([1]; cynomolgus monkey, plasma, po, 5 mg/kg, single po dose 5 mg/kg, Mean of the 3 animals, read-out: Tmax): 1.67 h
- AUC(0-inf) [1, 10]: 4720 ng·h/mL
- AUC(0-t) [1, 10]: 4580 ng·h/mL
- MRT inf [1, 10]: 11.7 h
- half-life [1, 10]: 8.8 h
- Cmax ([1]; cynomolgus monkey, plasma, po, 5 mg/kg, single po dose 5 mg/kg, individual animals, read-out: Cmax): 485 ng/mL
- MRT last ([1]; cynomolgus monkey, plasma, po, 5 mg/kg, single po dose 5 mg/kg, individual animals, read-out: MRT last): 10.2 h
- Tmax ([1]; cynomolgus monkey, plasma, po, 5 mg/kg, single po dose 5 mg/kg, individual animals, read-out: Tmax): 1 h
- AUC(0-inf) [2, 11]: 3970 ng·h/mL
- AUC(0-t) [2, 11]: 3950 ng·h/mL
- MRT inf [2, 11]: 3.3 h
- MRT last [2, 11]: 3 h
- clearance [2, 11]: 8.68 mL/min/kg
- Tmax ([2]; male, Sprague Dawley, plasma, iv, 2 mg/kg, single iv dose 2 mg/kg, Mean of the 3 rats, first plasma collection time listed as Tmax): 0.08 h
- Cmax ([2]; male, Sprague Dawley, plasma, iv, 2 mg/kg, single iv dose 2 mg/kg, Mean of the 3 rats, read-out: Cmax): 1870 ng/mL
- Vd [2, 11]: 1.68 L/kg
- half-life ([2]; male, Sprague Dawley, plasma, iv, 2 mg/kg, single iv dose 2 mg/kg, Mean of the 3 rats, read-out: t1/2 (converted)): 8.5 h
- AUC(0-inf) [2, 12]: 3610 ng·h/mL
- AUC(0-t) [2, 12]: 3600 ng·h/mL
- MRT inf [2, 12]: 3 h
- MRT last [2, 12]: 2.8 h
- clearance [2, 12]: 9.23 mL/min/kg
- Tmax ([2]; male, Sprague Dawley, plasma, iv, 2 mg/kg, single iv dose 2 mg/kg, individual rats, first plasma collection time listed as Tmax): 0.08 h
- Cmax ([2]; male, Sprague Dawley, plasma, iv, 2 mg/kg, single iv dose 2 mg/kg, individual rats, read-out: Cmax): 1670 ng/mL
- Vd [2, 12]: 1.69 L/kg
- half-life ([2]; male, Sprague Dawley, plasma, iv, 2 mg/kg, single iv dose 2 mg/kg, individual rats, read-out: t1/2 (converted)): 8.6 h
- AUC(0-inf) [2, 13]: 2680 ng·h/mL
- AUC(0-t) [2, 13]: 2640 ng·h/mL
- MRT inf [2, 13]: 9.9 h
- MRT last [2, 13]: 9 h
- Tmax [2, 13]: 1.42 h
- Cmax ([2]; male, Sprague Dawley, plasma, po, 5 mg/kg, single po dose 5 mg/kg, Mean of the 3 rats, read-out: Cmax): 390 ng/mL
- AUC(0-inf) [2, 14]: 3210 ng·h/mL
- AUC(0-t) [2, 14]: 3170 ng·h/mL
- MRT inf [2, 14]: 8.7 h
- MRT last [2, 14]: 8 h
- Cmax ([2]; male, Sprague Dawley, plasma, po, 5 mg/kg, single po dose 5 mg/kg, individual rats, read-out: Cmax): 456 ng/mL
- half-life ([2]; male, Sprague Dawley, plasma, po, 5 mg/kg, single po dose 5 mg/kg, individual rats, read-out: t1/2 (converted)): 8.2 h
- half-life ([2]; male, Sprague Dawley, plasma, po, 5 mg/kg, t1/2, rat, single po dose 5 mg/kg, Mean of the 3 rats, heading: t1/2): 7.6 h
- AUCLAST [2, 15]: 5020 ng·h/mL and 3244 ng·h/mL
- AUCinf [2, 15]: 5055 ng·h/mL and 3256 ng·h/mL
- Cl [2, 15]: 6.6 mL/min/kg and 10.2 mL/min/kg
- Cmax [2, 15]: 2400 ng/mL and 1536 ng/mL
- MRTinf [2, 15]: 3.7 h and 3.1 h
- MRTlast [2, 15]: 3.2 h and 2.9 h
- t1/2 [2, 15]: 11.0 h and 6.0 h
- F ([2]; single po dose 5 mg/kg, Mean of the 3 rats): 27.0%
- AUCLAST [2, 16]: 2683 ng·h/mL and 2069 ng·h/mL
- AUCinf [2, 16]: 2698 ng·h/mL and 2138 ng·h/mL
- Cmax [2, 16]: 274 ng/mL and 440 ng/mL
- F [2, 16]: 32.3% and 27.2% and 21.5%
- MRTinf [2, 16]: 8.2 h and 12.8 h
- MRTlast [2, 16]: 11.2 h
- t1/2 [2, 16]: 6.2 h and 8.5 h
- AUC(0-inf) [3, 17]: 2460 ng·h/mL
- AUC(0-t) [3, 17]: 2400 ng·h/mL
- MRT inf [3, 17]: 2.5 h
- MRT last [3, 17]: 2.2 h
- clearance [3, 17]: 13.5 mL/min/kg
- half-life [3, 17]: 2.1 h
- Cmax ([3]; male, CD-1, plasma, single iv dose 2 mg/kg, maximum observed concentration at first time point): 1460 ng/mL
- Vd ([3]; male, CD-1, plasma, single iv dose 2 mg/kg, read-out: Vss): 2.02 L/kg
- AUC(0-inf) [3, 18]: 1810 ng·h/mL
- AUC(0-t) [3, 18]: 1800 ng·h/mL
- Cmax [3, 18]: 278 ng/mL
- MRT inf [3, 18]: 5 h
- MRT last [3, 18]: 4.9 h
- Tmax [3, 18]: 0.25 h
- half-life [3, 18]: 2.9 h
- Tmax ([3]; male, CD-1, single iv dose 2 mg/kg, first plasma collection time): 0.08 h
- F ([3]; single po dose 5 mg/kg): 29.4%
- improvement in their disease, as manifested by MRI and liver biopsy [4]: dose-related improvement
